Converted amounts (≈) assume the structure as drawn.
Legend:
Assay type in all cases: functional
Conditions in all cases: variant bovis BCG
[1] = test system: Mycobacterium tuberculosis; assay: Antibacterial activity against Mycobacterium bovis BCG harboring moaA gene by microplate Alamar Blue assay
[2] = test system: Mycobacterium tuberculosis; assay: Antibacterial activity against Mycobacterium bovis BCG harboring moaD gene by microplate Alamar Blue assay
[3] = test system: Mycobacterium tuberculosis; assay: Antibacterial activity against wild-type Mycobacterium bovis BCG by microplate Alamar Blue assay
[4] = test system: Mycobacterium tuberculosis; assay: Antibacterial activity against Mycobacterium bovis BCG harboring fbiC gene by microplate Alamar Blue assay
[5] = test system: Mycobacterium tuberculosis; assay: Antibacterial activity against Mycobacterium bovis BCG harboring fgd gene by microplate Alamar Blue assay
[6] = test system: Mycobacterium tuberculosis; assay: Antibacterial activity against Mycobacterium bovis BCG harboring pil8 gene by microplate Alamar Blue assay

Row | SMILES | MIC [1] | MIC [2] | MIC [3] | MIC [4] | MIC [5] | MIC [6]
1 | CCOC(=O)c1c(C)[n+]([O-])c2ccc(Cl)cc2[n+]1[O-] | 0.38 µM (≈ 0.107 µg/mL) | 0.55 µM (≈ 0.155 µg/mL) | 0.5 µM (≈ 0.141 µg/mL) | 0.71 µM (≈ 0.201 µg/mL) | 0.5 µM (≈ 0.141 µg/mL) | 0.72 µM (≈ 0.204 µg/mL)
2 | O=C(Nc1ccc([N+](=O)[O-])cc1Cl)c1cc(Cl)ccc1O [NICLOSAMIDE] | 1.86 µM (≈ 0.608 µg/mL) | 1.9 µM (≈ 0.622 µg/mL) | 3.13 µM (≈ 1.02 µg/mL) | 1.57 µM (≈ 0.514 µg/mL) | 1.61 µM (≈ 0.527 µg/mL) | 1.87 µM (≈ 0.612 µg/mL)
3 | O=[N+]([O-])c1cn2c(n1)OC[C@@H](OCc1ccc(OC(F)(F)F)cc1)C2 [PRETOMANID] | > 128 µM | > 128 µM | 0.12 µM (≈ 0.0431 µg/mL) | > 128 µM | > 128 µM | > 128 µM
